Laboratory results as given in patent publication US20100215653A1, “METHODS OF TREATING NEOPLASTIC, AUTOIMMUNE AND INFLAMMATORY DISEASES” (Seattle Genetics, Inc., priority 2006, published 2010).
Entries after “also recorded” stand apart in the source; their conditions may differ.

Columns and labels:
[1] = system: HEL 92.1.7 cells; assay: Complement-dependent cytotoxicity (CDC) activity; format: cell-based, human; conditions: MDR+, CD33-positive HEL 92.1.7 cells (FIG. 4)
Procedure: The purpose of this study was to determine whether the cytotoxic effects of an anti-CD33 antibody (HuM195) on AML cells could be enhanced by combination treatment with chemotherapeutic drugs. An MDR^+, CD33-positive AML cell line (HEL 92.1.7) was either untreated or preincubated with the indicated concentrations of thalidomide or 5-azacytidine for two hours prior to exposure to the anti-CD33 Ab. Cytotoxic activity was measured using a complement-dependent cytotoxicity (CDC) activity.

[2] = system: primary human macrophages; assay: Cell viability (CelltiterGlo) of primary human macrophages; format: cell-based; conditions: 24 to 72 hours of exposure to increasing concentrations (FIG. 8)
Procedure: (§5) Macrophages were harvested, counted, and cultured in 96-well plates at 35,000 cells per well. G-CSF-mobilized CD14^+ monocytes (Cambrex) were cultured in 96-well plates at 100,000 cells per well (adherent cells) in sterile polypropylene dishes (non-adherent cells).

[3] = system: primary human CD14+ monocytes; assay: Cell viability (CelltiterGlo) of primary human CD14+ monocytes; format: cell-based; conditions: 48 hours of exposure to increasing concentrations (FIG. 13)
Procedure: as §5

[4] = system: primary human macrophages; assay: Macrophage migration in response to chemoattractants (CytoSelect Cell Migration Assay); format: cell-based
Procedure: (§1) The migration of macrophages in response to challenge with plating media containing 10% human serum, 20% conditioned tumor cell media, or 50 ng/ml TGF-β, VEGF, TNF-α, or IFN-γ was evaluated using the CytoSelect Cell Migration Assay (Cell Biolabs, San Diego, Calif.). […] The study was stopped 18 hours later and migration was evaluated after dissociation of the cells from the membrane followed by detection with Cyquant GR dye.
as §1, with “serum or” for “serum,”, “media” for “media, or 50 ng/ml TGF-β, VEGF, TNF-α, or IFN-γ”, “studies were” for “study was”, “h” for “hours”

[5] = system: KG-1 AML cell line; assay: Cytokine production by KG-1 AML cell line after TNF-alpha; format: cell-based, human; conditions: 2.5 μg/ml pre-treatment, then 1 ng/ml TNF-alpha, 18 h
Procedure: Media was harvested 18 h later for cytokine analyses.

[6] = system: HEL9217 cells; assay: HEL9217 disseminated MDR-positive AML model in SCID mice; format: in vivo
Source text: (§2) The MDR-negative HL60 cell line and the MDR-positive HEL9217 and TF1-α cell lines were used. […] Disease symptoms typically developed between about 35 and about 80 days, and included hind limb paralysis, scruffy coat, weight loss, palpable tumors, and/or tumor masses in bone, peritoneal cavity, or soft tissues. Human CD33+ tumor cells were detected in the blood, bone marrow, and lymph nodes of the majority of the mice by flow cytometry (FIG. 25). Solid tumors associated with bone or soft tissues were found in 20 to 60% of the mice.

[7] = system: TF1-α cells; assay: TF1-α disseminated MDR-positive AML model in SCID mice; format: in vivo
Source text: as §2

[8] = system: AML tumor cells; assay: ADCP, phagocytosis by monocyte-derived macrophages (flow cytometry); format: cell-based, human; conditions: MDR-positive and MDR-negative AML cells (FIG. 27B)
Procedure: (§3) Target AML tumor cells (KG-1 HEL9217, and TF1α) were labeled with Na^51CrO4 and mixed with enriched CD16^+ effector (NK) cells, prepared using PBMCs from normal donors. The effector to target cell ratio was 10:1. […] Macrophages were labeled with CD11b−FITC or CD14-FITC antibody. Flow cytometric analyses of dual labeled (PKH67+CD11b+ or PKH67+CD14+) cells was used to determine specific uptake (phagocytosis). […] Media were collected 18 h later and analyzed by ELISA for IL-8 or MCP-1.

[9] = system: AML tumor cell lines; assay: IL-8 / MCP-1 production by AML tumor cell lines after TNF-α (ELISA); format: cell-based, human; conditions: 10 μg/ml SGN-33 before 1 ng/ml TNF-α; 18 h; p<0.05, p<0.01 (FIG. 27C)
Procedure: as §3

[10] = target: T1, CD33 (Homo sapiens, UniProt P20138); assay: CD33 tyrosine phosphorylation (CD33 immunoprecipitation, anti-phosphotyrosine Western blot); format: cell-based; parameters: endogenous in cells; host or cells: HL-60, U937; primary human CD14+ monocytes and PBMC-derived macrophages
T1 sequence (P20138 18-364): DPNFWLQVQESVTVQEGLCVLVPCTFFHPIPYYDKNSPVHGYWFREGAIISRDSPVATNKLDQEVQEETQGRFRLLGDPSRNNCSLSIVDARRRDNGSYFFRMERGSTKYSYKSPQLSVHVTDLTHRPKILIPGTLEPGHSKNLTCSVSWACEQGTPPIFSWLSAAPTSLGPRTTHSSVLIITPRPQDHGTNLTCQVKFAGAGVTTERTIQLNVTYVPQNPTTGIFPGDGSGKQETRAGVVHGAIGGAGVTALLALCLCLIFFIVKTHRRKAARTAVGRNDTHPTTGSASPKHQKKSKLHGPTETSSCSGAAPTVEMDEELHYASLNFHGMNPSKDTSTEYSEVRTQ
Procedure: CD33-positive cell lines were treated with anti-CD33 antibodies (lintuzumab and certain commercially available antibodies). Cell extracts were prepared and CD33 was immunoprecipitated using an anti-CD33 antibody (MY9 clone; Beckman Coulter, Calif.). Western blotting was performed with an anti-phosphotyrosine antibody (4G10; Upstate Biotechnologies, Inc., Lake Placid, N.Y.).
(§4) Deglycosylation was confirmed by CE-SDS. […] Cell lysates were prepared and CD33 immunoprecipitated using an anti-CD33 rabbit polyclonal antibody (Santa Cruz Biotechnology, Santa Cruz, Calif.) prior to SDS PAGE gel electrophoresis. Western blot analyses of these samples were performed using the 4G10 phosphotyrosine antibody (Upstate Biotechnology, Temucula, Calif.), anti-CD33 antibody (NovoCastra, Norwell, Mass.), and anti-SHP-1 antibody (Calbiochem, San Diego, Calif.). Control lysate for SHP-1 was prepared from a B cell lymphoma cell line.

[11] = target: T1, CD33; assay: Recruitment of SHP-1 / SHP-2 / Syk to CD33 (CD33 immunoprecipitation, Western blot); format: cell-based; parameters: endogenous in cells; host or cells: HL-60, U937; primary human CD14+ monocytes and PBMC-derived macrophages
Procedure: To determine whether the humanized M195 antibody also recruits SHP phosphatases, HL-60 cells were treated with soluble or cross-linked anti-CD33 antibodies. Cell extracts were prepared and CD33 was immunoprecipitated with an anti-CD33 antibody (MY9 clone). Western blotting was performed with an anti-SHP-1 antibody (sc-287; Santa Cruz Biotechnology, Inc., Santa Cruz, Calif.).
as §4, with “To prepare deglycosylated SGN-33, the antibody was treated with PN-glycosidase F (New England BioLabs, Ipswich, Mass.). Deglycosylation” for “Deglycosylation”

SGN-33: anti-CD33 antibody, a humanized version of mouse monoclonal antibody M195
lysis of AML cells (CDC) [1]: increased lysis of AML cell lines in a dose-dependent manner | cell viability of macrophages [2]: not due to an adverse effect; also recorded: does not affect the viability | cell viability of monocytes [3]: not due to an adverse effect; also recorded: does not affect the viability | macrophage migration ([4]; 10% human serum or 20% conditioned media from RPMI 8226 cells, p<0.05 (FIG. 21)): significantly reduced the migration | blocking of migration of neuraminidase-treated macrophages ([4]; SGN-33 added to neuraminidase-treated macrophages, serum or tumor cell conditioned media (FIG. 14C)): greater blocking effect | production of IL-8, IP-10, MIP1β, RANTES and MCP-1 [5]: reduced the production of IL-8, IP-10, MIP1β, RANTES, and MCP-1 | survival ([6]; HEL9217 model, SCID mice, q4dx4, p<0.005 (FIG. 26)): > 80 days | increase of survival ([6]; MDR-positive HEL9217 model, 4 doses at 10 or 30 mg/kg, p<0.025): greater than 40 days | increase of survival ([7]; MDR-positive TF1-α model, 4 doses at 10 or 30 mg/kg, p<0.025): greater than 40 days | survival ([7]; TF1-α model, SCID mice, q4dx4, p<0.005 (FIG. 26)): > 100 days | ADCP activity (phagocytosis) [8]: antibody-dependent cell phagocytosis of MDR-positive and MDR-negative AML cells; also recorded: mediate phagocytosis of AML tumor cells | production of cytokines (IL-8 or MCP-1) [9]: reduced cytokine production; also recorded: significantly reduced the production of cytokines | phosphorylation of CD33 ([10]; HL-60 AML cells (FIG. 16)): induced phosphorylation of CD33 | CD33 tyrosine phosphorylation ([10]; HL-60 and U937 cells, soluble or cross-linked antibody (FIG. 2)): stimulated CD33 tyrosine phosphorylation | CD33 tyrosine phosphorylation ([10]; HL-60 cells, soluble and cross-linked antibody (FIG. 1)): stimulated CD33 tyrosine phosphorylation | recruitment of SHP-1 to the CD33 complex ([11]; HL-60 and monocytes, 30 minutes (FIG. 16)): resulted in recruitment of SHP-1 to the CD33 complex | recruitment of SHP-2 or Syk ([11]; HL-60 cells, data not shown): did not recruit SHP-2 or Syk
